According to patent US20100160304A1, “AROMATIC SULFONE COMPOUND AS ALDOSTERONE RECEPTOR MODULATOR” (Dainippon Sumitomo Pharma Co., Ltd, priority 2005, published 2010):

Biological target: T1, aldosterone receptor MR (Rattus norvegicus, UniProt P22199)
T1 construct: the resultant supernatant was being a soluble fraction of the kidney; from tissue; host or cells: kidney of adrenalectomized rat, 105,000 G supernatant (soluble fraction)
T1 sequence (P22199 1-981): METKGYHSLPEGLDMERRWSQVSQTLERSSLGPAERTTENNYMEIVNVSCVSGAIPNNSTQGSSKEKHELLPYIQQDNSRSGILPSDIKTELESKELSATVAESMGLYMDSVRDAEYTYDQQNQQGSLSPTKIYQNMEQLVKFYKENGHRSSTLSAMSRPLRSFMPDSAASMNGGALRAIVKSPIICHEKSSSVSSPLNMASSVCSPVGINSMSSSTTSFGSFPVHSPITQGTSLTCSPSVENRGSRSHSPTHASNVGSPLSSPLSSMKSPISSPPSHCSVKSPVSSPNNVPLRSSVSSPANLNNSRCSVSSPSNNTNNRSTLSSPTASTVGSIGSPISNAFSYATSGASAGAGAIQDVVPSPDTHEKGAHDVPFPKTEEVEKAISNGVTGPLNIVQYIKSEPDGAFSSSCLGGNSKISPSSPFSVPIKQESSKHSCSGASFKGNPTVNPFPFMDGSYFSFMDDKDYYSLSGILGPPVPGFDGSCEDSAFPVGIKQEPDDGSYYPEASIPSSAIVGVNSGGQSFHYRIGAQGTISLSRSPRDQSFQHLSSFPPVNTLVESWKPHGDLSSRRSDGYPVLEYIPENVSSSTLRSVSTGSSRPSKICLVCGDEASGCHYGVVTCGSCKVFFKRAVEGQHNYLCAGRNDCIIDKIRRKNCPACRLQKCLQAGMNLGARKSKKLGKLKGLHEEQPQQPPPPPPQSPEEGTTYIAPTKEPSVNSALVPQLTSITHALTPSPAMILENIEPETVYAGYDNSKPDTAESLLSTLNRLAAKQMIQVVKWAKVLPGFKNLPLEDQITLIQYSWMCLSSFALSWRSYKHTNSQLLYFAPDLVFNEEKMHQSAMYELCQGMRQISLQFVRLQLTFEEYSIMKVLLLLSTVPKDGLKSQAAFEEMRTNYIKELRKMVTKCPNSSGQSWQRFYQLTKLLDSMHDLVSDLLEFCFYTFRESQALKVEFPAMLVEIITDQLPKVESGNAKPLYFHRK
Assay: Aldosterone receptor binding assay ([3H]aldosterone, soluble fraction of rat kidney)
Details: [3H]aldosterone 2 nM, 2 μM RU-486, 4° C. about 18 hours
Method: Flank incision (both sides) was subjected to a rat to adrenalectomize. After suturing the rat's incised parts, the rat was again returned to a breeding cage and bred for a duration of 3 to 5 days to collect a kidney from the rat; the collected kidney was homogenized with 0.1 M Tris-HCl, 0.25M sucrose, 0.1M Na2MoO4, 2 mM DTT buffer solution (pH 7.4), the resultant solution was subjected to centrifugal separation at 105,000 G for 30 minutes, and the resultant supernatant was being a soluble fraction of the kidney.
Thereafter, the reactant solution was added with 50 μL of 5% dextran coated charcoal and mixed, and then centrifugated at 3,000 G for 5 minutes. Subsequently, 100 μL of the supernatant was collected and mixed with 3.5 mL of liquid scintillator ACS-II (Amersham) to measure a radioactivity with a liquid scintillation counter (manufactured by Packard, Tri Carb 2700TR). A non-specific binding was determined by adding 2 μM of aldosterone to the reactant solution.
Binding inhibiting rate (%)=10−[(B−N)/(B0−N)]×100
B: Binding amount of the marker ligand in the co-presence of the tested substance and marker ligand,
B0: Binding amount of the marker ligand in the absence of the tested substance, and
N: Binding amount of the marker ligand in the presence of excess aldosterone (2 μM).

Row | SMILES | IC50 [nM]
1 | C=CC1OC(=S)Nc2ccc(NS(=O)(=O)c3cccs3)cc21 (stereo not drawn) [Example 46, N-(2-Thioxo-4-vinyl-1,4-dihydro-2H-3,1-benzoxazin-6-yl)thiophene-2-sulfonamide] | 2900
2 | C#CC1(C)OC(=S)Nc2ccc(NS(=O)(=O)c3cccs3)cc21 (stereo not drawn) [Example 48, N-(4-Ethynyl-4-methyl-2-thioxo-1,4-dihydro-2H-3,1-benzoxazin-6-yl)thiophene-2-sulfonamide] | 320
3 | C=CC1(C)OC(=O)Nc2ccc(NS(=O)(=O)c3cccs3)cc21 (stereo not drawn) [Example 49, N-(4-Methyl-2-oxo-4-vinyl-1,4-dihydro-2H-3,1-benzoxazin-6-yl)thiophene-2-sulfonamide] | 2700
4 | C=CC1(C)OC(=S)Nc2ccc(NS(=O)(=O)c3cccs3)cc21 (stereo not drawn) [Example 50, N-(4-Methyl-2-thioxo-4-vinyl-1,4-dihydro-2H-3,1-benzoxazin-6-yl)thiophene-2-sulfonamide] | 11
5 | CC1=CC(C)(C)Nc2ccc(OS(=O)(=O)c3ccc(C)cc3)cc21 [Example 51, 2,2,4-Trimethyl-1,2-dihydroquinolin-6-yl 4-methylbenzenesulfonate] | 300
6 | CC1=CC(C)(C)Nc2ccc(OS(=O)(=O)c3ccc4ccccc4c3)cc21 [Example 52, 2,2,4-Trimethyl-1,2-dihydroquinolin-6-yl naphthalene-2-sulfonate] | 730
7 | CC1=CC(C)(C)Nc2cc(F)c(OS(=O)(=O)c3ccc(C)cc3)cc21 [Example 54, 7-Fluoro-2,2,4-trimethyl-1,2-dihydroquinolin-6-yl 4-methylbenzenesulfonate] | 200
8 | CC1=CC(C)(C)Nc2ccc(CS(=O)(=O)c3ccc(C)cc3)cc21 [Example 57, 2,2,4-Trimethyl-6-{[(4-methylphenyl)sulfonyl]methy}-1,2-dihydroquinoline] | 29
9 | CC1=CC(C)(C)Nc2ccc(NS(=O)(=O)c3ccc(C)cc3)cc21 [Example 60, 4-Methyl-N-(2,2,4-trimethyl-1,2-dihydroquinolin-6-yl)benzenesulfonamide] | 300
10 | CC1=CC(C)(C)Nc2ccc(NS(=O)(=O)c3ccc4ccccc4c3)cc21 [Example 61, N-(2,2,4-Trimethyl-1,2-dihydroquinolin-6-yl)naphthalene-2-sulfonamide] | 520
11 | CC1=CC(C)(C)Nc2ccc(NS(=O)(=O)c3cccs3)cc21 [Example 62, N-(2,2,4-Trimethyl-1,2-dihydroquinolin-6-yl)thiophene-2-sulfonamide] | 130
12 | CC1=CC(C)(C)Nc2ccc(NS(=O)(=O)c3ccccc3)cc21 [Example 63, N-(2,2,4-Trimethyl-1,2-dihydroquinolin-6-yl)benzenesulfonamide] | 360
13 | CC1=CC(C)(C)Nc2ccc(NS(=O)(=O)c3ccc(Cl)s3)cc21 [Example 66, 5-Chloro-N-(2,2,4-trimethyl-1,2-dihydroquinolin-6-yl)thiophene-2-sulfonamide] | 1300
14 | CC1=CC(C)(C)Nc2ccc(NS(=O)(=O)c3ccccc3F)cc21 [Example 67, 2-Fluoro-N-(2,2,4-trimethyl-1,2-dihydroquinolin-6-yl)benzenesulfonamide] | 600
15 | CC1=CC(C)(C)Nc2ccc(NS(=O)(=O)c3cccc(F)c3)cc21 [Example 68, 3-Fluoro-N-(2,2,4-trimethyl-1,2-dihydroquinolin-6-yl)benzenesulfonamide] | 1500
16 | CC1=CC(C)(C)Nc2ccc(NS(=O)(=O)c3ccc(F)cc3)cc21 [Example 69, 4-Fluoro-N-(2,2,4-trimethyl-1,2-dihydroquinolin-6-yl)benzenesulfonamide] | 1200
17 | CC1=CC(C)(C)Nc2ccc(NS(=O)(=O)c3ccc(C(F)(F)F)cc3)cc21 [Example 70, 4-(Trifluoromethyl)-N-(2,2,4-trimethyl-1,2-dihydroquinolin-6-yl)benzenesulfonamide] | 300
18 | CC1=CC(C)(C)Nc2ccc(NS(=O)(=O)c3cccnc3)cc21 [Example 73, N-(2,2,4-Trimethyl-1,2-dihydroquinolin-6-yl)pyridine-3-sulfonamide] | 210
